Structures are written as SMILES.

The nature of the series: Intramolecular Cu-catalysed sydnonimine-alkyne click-and-release (forms 1,4-disubstituted pyrazole, releases CO2 and pyrenylmethyl urea/isocyanate): CuSO4 0.2 eq, bathophenanthroline disulfonate 0.4 eq, Na ascorbate 3 eq, triethanolamine 2 eq, 16 h; rGO filtration and aqueous work-up. Conditions: DMSO/H2O 1:1, 35.0 mM, 37.0 °C.

Regarding `CC(C)C[C@@H]1NC(=O)[C@@H]2CCCN2Cc2cnn(c2)-c2cccc(c2)C(=O)NCCNC(=O)CNC1=O`, where the note is “from C#CCN1CCC[C@H]1C(=O)N[C@@H](CC(C)C)C(=O)NCC(=O)NCCNC(=O)c1cccc(-[n+]2cc([N-]C(=O)NCc3ccc4ccc5cccc6ccc3c4c56)on2)c1, 21-membered ring”, the ring closure, isolated yield worked out at 79%.

Regarding `CC(C)C[C@@H]1NC(=O)c2cccc(c2)-n2cc(cn2)CNC(=O)[C@H](C)NC1=O` [3-(sydnonimine-pyrene)benzoyl-Leu-Ala-NH-propargyl], the ring closure, isolated yield (from C#CCNC(=O)[C@H](C)NC(=O)[C@H](CC(C)C)NC(=O)c1cccc(-[n+]2cc([N-]C(=O)NCc3ccc4ccc5cccc6ccc3c4c56)on2)c1, 15-membered ring) came to 68%.

Turning to `CC(C)C[C@@H]1NC(=O)[C@H](Cc2ccccc2)NC(=O)c2cccc(c2)-n2cc(cn2)CNC1=O` [3-(sydnonimine-pyrene)benzoyl-Phe-Leu-NH-propargyl], the ring closure, isolated yield (from C#CCNC(=O)[C@H](CC(C)C)NC(=O)[C@H](Cc1ccccc1)NC(=O)c1cccc(-[n+]2cc([N-]C(=O)NCc3ccc4ccc5cccc6ccc3c4c56)on2)c1, 15-membered ring) came out at 63%.

Consider `O=C1CNC(=O)[C@H](Cc2c[nH]c3ccccc23)NC(=O)c2cccc(c2)-n2cc(cn2)CN1` [3-(sydnonimine-pyrene)benzoyl-Trp-Gly-NH-propargyl], for which the ring closure, isolated yield (from C#CCNC(=O)CNC(=O)[C@H](Cc1c[nH]c2ccccc12)NC(=O)c1cccc(-[n+]2cc([N-]C(=O)NCc3ccc4ccc5cccc6ccc3c4c56)on2)c1, 15-membered ring) was 75%.

For the compound `C#CCNC(=O)CNC(=O)c1cccc(-[n+]2cc([N-]C(=O)NCc3ccc4ccc5cccc6ccc3c4c56)on2)c1` [S1 -> CyP1], the ring closure, isolated yield (the molecule shown is the open-chain precursor, 12-membered ring) worked out at 0%.

Where the note is “from C#CCNC(=O)CCCCNC(=O)c1cccc(-[n+]2cc([N-]C(=O)NCc3ccc4ccc5cccc6ccc3c4c56)on2)c1, 15-membered ring”, `O=C1CCCCNC(=O)c2cccc(c2)-n2cc(cn2)CN1` [S2 -> CyP2] showed a ring closure, isolated yield of 75%.

As for `O=C1CCCCCCCNC(=O)c2cccc(c2)-n2cc(cn2)CN1` [S3 -> CyP3], the ring closure, isolated yield (from C#CCNC(=O)CCCCCCCNC(=O)c1cccc(-[n+]2cc([N-]C(=O)NCc3ccc4ccc5cccc6ccc3c4c56)on2)c1, 18-membered ring) came to 85%.

`O=C1CCCCCCCCCCNC(=O)c2cccc(c2)-n2cc(cn2)CN1` [S4 -> CyP4] gave a ring closure, isolated yield (from C#CCNC(=O)CCCCCCCCCCNC(=O)c1cccc(-[n+]2cc([N-]C(=O)NCc3ccc4ccc5cccc6ccc3c4c56)on2)c1, 21-membered ring) of 65%.

Take `O=C1CCCCCCCCCCNC(=O)c2cccc(c2)-n2cc(cn2)CNC(=O)CN1` [S5 -> CyP5]: where the note is “from C#CCNC(=O)CNC(=O)CCCCCCCCCCNC(=O)c1cccc(-[n+]2cc([N-]C(=O)NCc3ccc4ccc5cccc6ccc3c4c56)on2)c1, 24-membered ring”, the ring closure, isolated yield came out at 68%.

As for `O=C1CCCCCCCCCCNC(=O)c2cccc(c2)-n2cc(cn2)CNC(=O)CCCCN1` [S6 -> CyP6], under “from C#CCNC(=O)CCCCNC(=O)CCCCCCCCCCNC(=O)c1cccc(-[n+]2cc([N-]C(=O)NCc3ccc4ccc5cccc6ccc3c4c56)on2)c1, 27-membered ring”, the ring closure, isolated yield is 78%.

`O=C1NCCOCCOCCOCc2cnn(c2)-c2cccc1c2` [S7 -> CyP7 (50 C)]: under “from C#CCOCCOCCOCCNC(=O)c1cccc(-[n+]2cc([N-]C(=O)NCc3ccc4ccc5cccc6ccc3c4c56)on2)c1, 18-membered ring”, the ring closure, isolated yield was found to be 81%.

Consider `O=C1CCc2cnn(c2)-c2cccc(c2)C(=O)Nc2ccc(cc2)Oc2cccc(c2)Oc2ccc(cc2)N1` [S8 -> CyP8], for which the ring closure, isolated yield (from C#CCCC(=O)Nc1ccc(Oc2cccc(Oc3ccc(NC(=O)c4cccc(-[n+]5cc([N-]C(=O)NCc6ccc7ccc8cccc9ccc6c7c89)on5)c4)cc3)c2)cc1, 25-membered ring) came to 72%.

Regarding `COC(=O)[C@@H]1CCCCNC(=O)c2cccc(c2)-n2cc(cn2)CCCC(=O)N1` [hex-5-ynoyl-Lys(Nε-3-(sydnonimine-pyrene)benzoyl)-OMe], the ring closure, isolated yield (from C#CCCCC(=O)N[C@@H](CCCCNC(=O)c1cccc(-[n+]2cc([N-]C(=O)NCc3ccc4ccc5cccc6ccc3c4c56)on2)c1)C(=O)OC, 18-membered ring) stood at 76%.

Source of the values: publication PMC12117170.
